# Measured values from patent US20100226853A1 (priority 2007, published 2010).
# Legend:
# M07e cells = test: Cellular proliferation, [3H]thymidine uptake, Kit ligand dependent growth; format: cell-based; conditions: Homo sapiens, M-07e, read-out: IC50, M07e cells proliferation
# Method: The immortalized human hematopoietic Philadelphia chromosome-positive cytokine independent R10(−) M07e^p210 cell line (46) was maintained in Iscove's modified Dulbecco's medium (Life Technologies, Inc., Grand Island, N.Y.) containing 10% FCS (Hyclone, Logan, Utah). The parental M07e megakaryoblastic cell line was a kind gift of Brian Druker and was maintained in the presence of 50 ng/mL kit ligand (SCF) as described (46-47) K562 was obtained from the ATCC. K562 was maintained in suspension in 90% RPMI 1640 medium supplemented with 10% FBS, 2 mM L-glutamine, 10 mM HEPES, 1 mM sodium pyruvate, 1.5 g/L sodium bicarbonate, 4.5 g/L […], 10% FBS, 100 IU/mL penicillin and 100 μg/ml streptomycin. Tumor cell cultures were maintained in a humidified atmosphere with 5% CO2 at 37° C. (NuAire).
# . Data points for all assays were obtained in triplicate, and background incorporation from cell-free wells was determined and subtracted from all data points. The data was analyzed using a non-linear regression fit to a sigmoidal dose-response curve using Prism 4 (GraphPad Software, Inc).
# [1] = test system: H1975 and H1975-DR lung cancer xenografts; test: microPET competitive inhibition of tracer uptake by unlabeled Dasatinib; format: in vivo, SCID mouse
# [2] = oral dasatinib therapy; cited from earlier work
# ACK = target: T1, ACK (Homo sapiens, UniProt Q07912); test: QuickScout ELISA kinase panel; format: biochemical
# T1 construct: purchased Carna Biosciences (QuickScout service)
# Description: (§1) . […] An ELISA-based assay was used in which the phosphorylation of an oligopeptide substrate was detected by an HRP-conjugated anti-p-Tyr (PY20) probe. […]. The data appears in Table 2 in Example 3.
# CSK = target: T2, CSK (Homo sapiens, UniProt P41240); test: QuickScout ELISA kinase panel; format: biochemical
# T2 construct: purchased Carna Biosciences (QuickScout service)
# Description: as §1
# EphA2 = target: T3, EphA2 (Homo sapiens, UniProt P29317); test: QuickScout ELISA kinase panel; format: biochemical
# T3 construct: purchased Carna Biosciences (QuickScout service)
# Description: as §1
# EphB4 = target: T4, EphB4 (Homo sapiens, UniProt P54760); test: QuickScout ELISA kinase panel; format: biochemical
# T4 construct: purchased Carna Biosciences (QuickScout service)
# Description: as §1
# FLT3 = target: T5, FLT3 (Homo sapiens, UniProt P36888); test: QuickScout ELISA kinase panel; format: biochemical
# T5 construct: purchased Carna Biosciences (Kobe, Japan), QuickScout service
# Description: as §1
# JAK3 = target: T6, JAK3 (Homo sapiens, UniProt P52333); test: QuickScout ELISA kinase panel; format: biochemical
# T6 construct: purchased Carna Biosciences (QuickScout service)
# Description: as §1
# MET = target: T7, MET (Homo sapiens, UniProt P08581); test: QuickScout ELISA kinase panel; format: biochemical
# T7 construct: purchased Carna Biosciences (QuickScout service)
# Description: as §1
# PDGFR— = target: T8, PDGFR— (Homo sapiens, UniProt P16234); test: QuickScout ELISA kinase panel; format: biochemical
# T8 construct: purchased Carna Biosciences (Kobe, Japan), QuickScout service
# Description: as §1
# TEC = target: T9, TEC (Homo sapiens, UniProt P42680); test: QuickScout ELISA kinase panel; format: biochemical
# T9 construct: purchased Carna Biosciences (Kobe, Japan), QuickScout service
# T9 sequence (P42680 1-631): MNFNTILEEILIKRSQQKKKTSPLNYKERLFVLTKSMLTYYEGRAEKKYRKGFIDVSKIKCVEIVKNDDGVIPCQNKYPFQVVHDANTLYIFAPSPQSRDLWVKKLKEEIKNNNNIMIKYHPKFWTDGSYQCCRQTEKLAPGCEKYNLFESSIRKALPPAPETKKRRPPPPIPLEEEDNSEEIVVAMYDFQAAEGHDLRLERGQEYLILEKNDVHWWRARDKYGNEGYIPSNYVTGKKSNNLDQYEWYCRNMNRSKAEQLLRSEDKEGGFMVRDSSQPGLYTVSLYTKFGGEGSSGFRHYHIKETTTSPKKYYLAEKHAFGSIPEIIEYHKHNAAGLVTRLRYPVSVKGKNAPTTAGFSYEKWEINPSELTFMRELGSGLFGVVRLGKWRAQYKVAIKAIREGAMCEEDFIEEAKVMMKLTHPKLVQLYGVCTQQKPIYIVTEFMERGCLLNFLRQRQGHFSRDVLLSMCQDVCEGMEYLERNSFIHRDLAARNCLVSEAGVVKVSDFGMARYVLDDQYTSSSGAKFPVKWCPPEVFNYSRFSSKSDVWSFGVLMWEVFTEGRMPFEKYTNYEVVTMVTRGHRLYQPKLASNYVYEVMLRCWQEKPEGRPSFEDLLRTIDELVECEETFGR
# Description: as §1
# TYRO3 = target: T10, TYRO3 (Homo sapiens, UniProt Q06418); test: QuickScout ELISA kinase panel; format: biochemical
# T10 construct: purchased Carna Biosciences (QuickScout service)
# Description: as §1
# SRC = SRC (Homo sapiens, UniProt P12931); test: biochemical
# Description: (§2) An ELISA-based assay was used in which the phosphorylation of an oligopeptide substrate was detected by an HRP-conjugated anti-p-Tyr (PY20) probe.
# EGFR = target: T11, EGFR (Homo sapiens, UniProt P00533); test: QuickScout ELISA kinase panel; format: biochemical; conditions: Table 3
# T11 construct: purchased Carna Biosciences (QuickScout service)
# Description: as §2
# FGFR1 = target: T12, FGFR1 (Homo sapiens, UniProt P11362); test: QuickScout ELISA kinase panel; format: biochemical; conditions: Table 3
# T12 construct: purchased Carna Biosciences (QuickScout service)
# Description: as §2
# KIT = target: T13, KIT (Homo sapiens, UniProt P10721); test: QuickScout ELISA kinase panel; format: biochemical; conditions: Table 3
# T13 construct: purchased Carna Biosciences (Kobe, Japan), QuickScout service
# Description: as §2
# [3] = In vivo metabolism in mice (blood/plasma radio-HPLC); conditions: for Peak 3 [18F]-5 (16.9 min) % Radioactivity, parent: plasma
# Method: Mice were injected i.v. with [^18F]-5 in the tail vein and sacrificed using carbon dioxide at 30, 60 and 120 min post injection. Each group contained three mice. Immediately after sacrifice, about 0.5 ml of blood was collected by cardiac puncture and deposited in a 1.5 ml Eppendorf tube. Disodium EDTA (2.5 mg) was used as anticoagulant. The samples were then maintained at 4° C. for subsequent procedures. The total radioactivity in each total blood sample was counted. The samples were then centrifuged at 4° C. at 2200×g. Radioactivity of the serum and pellet measured and about 50% of the total radioactivity was retained in the pellet. The serum was transferred to a 1.5 ml Eppendorf tube containing about […] of 60% acetonitrile in water and centrifuged again to precipitate any residual proteins. The supernatant was analyzed using HPLC and examined for metabolites. HPLC was carried out on a C-18 Shimadzu 4.6×250 mm HPLC column and eluted under gradient conditions 80% A (pH 5.5 50 mM NaOAc):20% B (CH3CN) to 20% A:80% B at 1 ml/min. Radioactivity was detected using Packard Radiomatic FLO-One/beta detector equipped with a PET flow cell containing BGO (bismuthgermanate) windows.
# [4] = test system: K562 (CML) tumor xenografts; test: microPET imaging of K562 xenograft; format: in vivo, athymic nu/nu mice
# Method: All animal studies were carried out within the framework of an institutional IACUC approved protocol (No. 86-02-020). Athymic nu/nu mice (National Cancer Institute, Bethesda, Md.) were inoculated subcutaneously onto the right shoulder with 1×10^7 K562 cells mixed with Matrigel (BD Biosciences, San Jose, Calif.). K562 is a chronic myelogenous leukemia cell line cultured with IMDM (Iscove's modified Dulbecco's medium; prepared in-house) containing 4 mM L-glutamine, 1.5 g/L sodium bicarbonate, and 10% fetal bovine serum.
# Three weeks following tumor inoculation, PET images of mice were obtained using FOCUS 120 microPET™ scanner (Siemens Preclinical Solutions, Knoxyille, Tenn.) with [^18F]-5. Mice were injected intravenously (via tail vein) with 14±1 MBq (375±25 μCi) of [^18F]-5 and imaged 60 minutes later under 2% (at 1 L/min) isoflurane anesthesia (Forane, Baxter Healthcare, Deerfield, Ill.). Image acquisition time was 15 min (t=60 to 75 min) using a 250-750 keV energy window and a 6 nsec timing window. List-mode data were sorted into sinograms by Fourier re-binning and reconstructed by filter back-projection without attenuation correction. Count data in the reconstructed images were converted to activity concentration (i.e. % of the injected dose per gram (% ID/gm)) using a system calibration factor determined using a ^18F-filled mouse-sized phantom. Visualization and analyses of microPET images were carried out using AsiPRO™ software (Siemens Preclinical Solutions, Knoxyille, Tenn.).
# In vivo results have been obtained in athymic mice bearing subcutaneous K562 (CML) tumor xenografts in the right shoulder. [^18F]-5 (14±1 MBq, 375±25 μCi) was injected through the tail vein and the subjects were imaged in a microPET scanner. […] Tracer activity was evident within the tumor xenograft (white arrow) and was determined to be 1.1% of the injected dose by ROI (region of interest) analysis. […] The transaxial image was taken at the level of the known palpable tumor as shown in the coronal section (broken line). The intensity of the radiotracer activity is color-graded as depicted by the colored scale.
# ABL = ABL (Homo sapiens, UniProt P00519); test: QuickScout ELISA kinase panel; format: biochemical; design: purchased Carna Biosciences (QuickScout service); conditions: Table 3
# Description: as §2
# T8 sequence (P16234 550-1089 limits assumed): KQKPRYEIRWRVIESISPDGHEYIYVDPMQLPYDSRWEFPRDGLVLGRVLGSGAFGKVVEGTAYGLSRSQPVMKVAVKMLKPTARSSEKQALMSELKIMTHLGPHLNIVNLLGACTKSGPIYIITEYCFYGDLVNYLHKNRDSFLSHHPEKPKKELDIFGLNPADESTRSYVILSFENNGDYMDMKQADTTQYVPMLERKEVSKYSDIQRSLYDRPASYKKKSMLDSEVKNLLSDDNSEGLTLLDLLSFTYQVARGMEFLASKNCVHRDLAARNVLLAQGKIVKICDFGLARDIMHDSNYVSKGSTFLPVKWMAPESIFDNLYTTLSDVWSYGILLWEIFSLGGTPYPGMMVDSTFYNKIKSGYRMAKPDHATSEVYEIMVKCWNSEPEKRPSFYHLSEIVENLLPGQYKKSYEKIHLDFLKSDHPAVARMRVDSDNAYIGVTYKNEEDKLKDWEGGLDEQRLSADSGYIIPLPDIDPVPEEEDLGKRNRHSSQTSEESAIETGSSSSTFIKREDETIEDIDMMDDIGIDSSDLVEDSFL
# Chain of SRC (P12931 whole entry): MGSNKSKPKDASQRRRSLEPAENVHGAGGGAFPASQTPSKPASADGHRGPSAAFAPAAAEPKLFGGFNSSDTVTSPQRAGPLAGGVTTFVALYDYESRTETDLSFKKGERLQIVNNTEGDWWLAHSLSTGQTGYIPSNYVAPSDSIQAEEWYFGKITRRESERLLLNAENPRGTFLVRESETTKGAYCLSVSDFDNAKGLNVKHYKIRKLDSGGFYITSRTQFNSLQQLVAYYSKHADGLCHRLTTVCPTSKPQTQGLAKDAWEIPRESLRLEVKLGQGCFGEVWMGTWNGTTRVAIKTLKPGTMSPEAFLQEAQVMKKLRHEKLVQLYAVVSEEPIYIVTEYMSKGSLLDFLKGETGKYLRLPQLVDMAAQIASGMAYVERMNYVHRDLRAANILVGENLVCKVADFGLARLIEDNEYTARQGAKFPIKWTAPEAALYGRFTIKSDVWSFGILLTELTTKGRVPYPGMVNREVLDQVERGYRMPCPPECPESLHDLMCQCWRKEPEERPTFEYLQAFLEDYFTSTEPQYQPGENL
# T2 sequence (P41240 whole entry): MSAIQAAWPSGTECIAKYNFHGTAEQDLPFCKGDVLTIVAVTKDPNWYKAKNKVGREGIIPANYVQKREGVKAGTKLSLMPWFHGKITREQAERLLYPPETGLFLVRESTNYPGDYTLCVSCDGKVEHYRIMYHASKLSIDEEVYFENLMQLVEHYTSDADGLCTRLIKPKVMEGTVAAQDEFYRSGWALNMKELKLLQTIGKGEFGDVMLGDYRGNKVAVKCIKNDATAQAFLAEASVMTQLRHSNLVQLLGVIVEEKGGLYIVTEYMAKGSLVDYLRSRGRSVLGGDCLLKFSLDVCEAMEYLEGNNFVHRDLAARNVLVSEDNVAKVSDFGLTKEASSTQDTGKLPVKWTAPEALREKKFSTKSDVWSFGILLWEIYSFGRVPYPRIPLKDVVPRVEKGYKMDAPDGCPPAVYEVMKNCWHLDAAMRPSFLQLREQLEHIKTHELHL
# T1 sequence (Q07912 whole entry): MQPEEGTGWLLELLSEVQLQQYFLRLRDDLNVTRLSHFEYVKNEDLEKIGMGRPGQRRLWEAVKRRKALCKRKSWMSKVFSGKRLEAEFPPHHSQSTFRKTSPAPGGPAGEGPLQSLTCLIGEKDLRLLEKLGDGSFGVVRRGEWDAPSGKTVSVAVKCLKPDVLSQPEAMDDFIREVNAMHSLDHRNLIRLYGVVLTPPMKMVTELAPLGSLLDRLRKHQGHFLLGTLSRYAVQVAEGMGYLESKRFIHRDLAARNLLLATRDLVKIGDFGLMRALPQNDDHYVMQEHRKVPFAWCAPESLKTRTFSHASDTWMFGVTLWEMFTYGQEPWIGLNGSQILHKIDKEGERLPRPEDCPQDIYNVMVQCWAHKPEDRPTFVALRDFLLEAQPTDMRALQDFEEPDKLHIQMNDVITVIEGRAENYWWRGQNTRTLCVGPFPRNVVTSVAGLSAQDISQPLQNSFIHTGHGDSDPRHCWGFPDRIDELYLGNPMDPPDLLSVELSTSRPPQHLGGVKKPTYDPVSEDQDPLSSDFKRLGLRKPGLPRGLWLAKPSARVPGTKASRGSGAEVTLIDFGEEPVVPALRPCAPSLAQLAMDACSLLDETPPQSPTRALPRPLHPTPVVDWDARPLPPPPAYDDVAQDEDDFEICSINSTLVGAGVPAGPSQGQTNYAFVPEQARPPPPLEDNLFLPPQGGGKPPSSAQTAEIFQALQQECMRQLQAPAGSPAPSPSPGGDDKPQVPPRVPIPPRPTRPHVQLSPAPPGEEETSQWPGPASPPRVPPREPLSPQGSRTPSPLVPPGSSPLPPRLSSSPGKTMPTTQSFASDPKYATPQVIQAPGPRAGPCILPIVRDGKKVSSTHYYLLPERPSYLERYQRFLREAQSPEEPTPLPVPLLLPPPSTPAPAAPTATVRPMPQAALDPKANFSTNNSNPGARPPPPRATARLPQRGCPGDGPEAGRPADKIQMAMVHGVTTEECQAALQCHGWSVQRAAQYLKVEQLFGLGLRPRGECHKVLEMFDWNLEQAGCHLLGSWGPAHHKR
# T4 sequence (P54760 16-987): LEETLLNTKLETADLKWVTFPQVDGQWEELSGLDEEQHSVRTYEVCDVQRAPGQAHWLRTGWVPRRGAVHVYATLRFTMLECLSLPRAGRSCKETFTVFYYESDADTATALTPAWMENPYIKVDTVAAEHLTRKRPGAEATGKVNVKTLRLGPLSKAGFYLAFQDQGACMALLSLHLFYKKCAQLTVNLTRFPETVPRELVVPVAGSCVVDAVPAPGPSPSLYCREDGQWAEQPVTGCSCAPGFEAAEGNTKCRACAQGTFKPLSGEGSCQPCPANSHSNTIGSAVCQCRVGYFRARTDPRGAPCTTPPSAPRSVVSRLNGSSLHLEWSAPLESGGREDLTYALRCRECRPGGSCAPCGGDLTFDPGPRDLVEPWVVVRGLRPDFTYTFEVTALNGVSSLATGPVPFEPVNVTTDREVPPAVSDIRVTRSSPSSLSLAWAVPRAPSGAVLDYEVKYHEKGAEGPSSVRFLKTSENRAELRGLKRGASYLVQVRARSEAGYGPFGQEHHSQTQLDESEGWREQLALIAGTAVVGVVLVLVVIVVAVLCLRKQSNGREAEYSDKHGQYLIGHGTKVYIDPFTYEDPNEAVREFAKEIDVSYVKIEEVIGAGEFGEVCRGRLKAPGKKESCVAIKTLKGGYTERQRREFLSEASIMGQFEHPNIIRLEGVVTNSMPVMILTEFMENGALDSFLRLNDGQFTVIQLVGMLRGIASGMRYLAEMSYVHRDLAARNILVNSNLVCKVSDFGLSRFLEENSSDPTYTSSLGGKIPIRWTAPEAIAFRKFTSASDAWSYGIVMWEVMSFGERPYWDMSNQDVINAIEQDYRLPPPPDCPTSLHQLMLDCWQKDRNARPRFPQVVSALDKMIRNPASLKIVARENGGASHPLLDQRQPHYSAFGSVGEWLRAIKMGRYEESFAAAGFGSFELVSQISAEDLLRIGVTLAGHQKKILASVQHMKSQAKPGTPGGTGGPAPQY
# T3 sequence (P29317 24-976): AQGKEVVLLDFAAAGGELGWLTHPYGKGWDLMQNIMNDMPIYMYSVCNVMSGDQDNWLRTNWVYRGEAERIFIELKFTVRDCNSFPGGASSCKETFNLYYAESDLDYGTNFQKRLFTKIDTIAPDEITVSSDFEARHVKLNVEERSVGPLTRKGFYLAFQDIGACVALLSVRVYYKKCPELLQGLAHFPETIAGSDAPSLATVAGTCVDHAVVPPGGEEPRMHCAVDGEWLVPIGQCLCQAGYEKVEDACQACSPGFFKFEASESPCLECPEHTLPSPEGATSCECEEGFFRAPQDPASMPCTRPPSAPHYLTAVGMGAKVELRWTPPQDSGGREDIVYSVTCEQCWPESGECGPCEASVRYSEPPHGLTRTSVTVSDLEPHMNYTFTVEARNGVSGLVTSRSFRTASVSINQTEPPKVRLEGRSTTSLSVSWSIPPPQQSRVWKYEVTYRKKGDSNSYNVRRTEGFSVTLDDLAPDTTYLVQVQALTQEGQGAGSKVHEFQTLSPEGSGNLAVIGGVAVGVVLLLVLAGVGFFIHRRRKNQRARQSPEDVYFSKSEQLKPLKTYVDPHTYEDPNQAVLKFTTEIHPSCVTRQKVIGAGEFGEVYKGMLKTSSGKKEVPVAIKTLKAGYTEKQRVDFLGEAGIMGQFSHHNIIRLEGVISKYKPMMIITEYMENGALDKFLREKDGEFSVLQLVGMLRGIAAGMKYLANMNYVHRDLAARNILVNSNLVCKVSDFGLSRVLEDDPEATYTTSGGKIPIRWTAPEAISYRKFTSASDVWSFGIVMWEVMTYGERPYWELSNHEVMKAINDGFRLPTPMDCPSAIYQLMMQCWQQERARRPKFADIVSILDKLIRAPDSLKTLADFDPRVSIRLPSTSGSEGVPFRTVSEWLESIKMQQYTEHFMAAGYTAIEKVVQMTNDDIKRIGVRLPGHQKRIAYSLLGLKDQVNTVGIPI
structure (smiles),measurement,setting,value
"Cc1nc(Nc2ncc(C(=O)Nc3c(C)cccc3Cl)s2)cc(N2CCN(CCO)CC2)n1.O [Dasatinib, N-(2-chloro-6-methylphenyl)-2-[[6-[4-(2-hydroxyethyl)-1-piperazinyl]-2-methyl-4-pyrimidinyl]amino]-5-thiazole carboxamide monohydrate, reference compound]",IC50,M07e cells,1.2 ± 0.8 nM
same,effect of unlabeled Dasatinib on [18F]-5 uptake,[1]; Dasatinib 30 mg/kg IP,competitive inhibition of tracer uptake in the tumors and organs
same,patients with severe myelosuppression,[2],> 50%
"CN[C@@H]1C[C@H]2O[C@@](C)([C@@H]1OC)n1c3ccccc3c3c4c(c5c6ccccc6n2c5c31)C(=O)NC4 [Staurosporine, reference compound]",inhibition at 0.03 µM,"ACK; read-out: % Inhibition of Kinase Activity, ACK",96.4%
same,inhibition at 0.3 µM,"CSK; read-out: % Inhibition of Kinase Activity, CSK",89.3%
same,inhibition at 10 µM,"EphA2; read-out: % Inhibition of Kinase Activity, EphA2",92.6%
same,inhibition at 10 µM,"EphB4; read-out: % Inhibition of Kinase Activity, EphB4",94.1%
same,inhibition at 0.003 µM,FLT3,96.4%
same,inhibition at 0.003 µM,JAK3,95.3%
same,inhibition at 0.3 µM,MET,90%
same,inhibition at 0.003 µM,"PDGFR—; read-out: % Inhibition of Kinase Activity, PDGFR—",88.4%
same,inhibition at 0.3 µM,"TEC; read-out: % Inhibition of Kinase Activity, TEC",92.5%
same,inhibition at 1 µM,TYRO3,95.3%
same,inhibition at 3 µM,"SRC; read-out: % Inhibition of Kinase Activity, SRC, Staurosporine at 3000 nM",89.8%
Cc1nc(Nc2ncc(C(=O)Nc3c(C)cccc3Cl)s2)cc(N2CCN(CC[18F])CC2)n1 [[^18F]-5],EC50,EGFR,270 nM
same,EC50,FGFR1,390 nM
same,EC50,KIT,1.3 nM
same,EC50,ACK; Table 3,20 nM
same,EC50,CSK; Table 3,5 nM
same,EC50,EphA2; Table 3,1.9 nM
same,EC50,EphB4; Table 3,3.1 nM
same,EC50,PDGFR—; Table 3,16 nM
same,EC50,TEC; Table 3,1.9 nM
same,EC50,SRC,2.6 nM
same,total blood radioactivity retained in the pellet,[3]; mouse blood centrifuged at 2200 x g after i.v. injection,about 50%
same,"Peak 3 [18F]-5 (16.9 min) % Radioactivity, parent",[3]; 30 min post injection,31 ± 11%
same,"Peak 3 [18F]-5 (16.9 min) % Radioactivity, parent",[3]; 60 min post injection,9 ± 3%
same,"Peak 3 [18F]-5 (16.9 min) % Radioactivity, parent","[3]; 120 min post injection, one trial only",8%
same,metabolism in plasma over time course,"[3]; two-hour time course, HPLC of plasma",metabolized significantly
same,tracer activity within the tumor xenograft by ROI analysis,"[4]; 60 minutes after i.v. injection, one representative mouse",1.1 % of the injected dose
same,route of clearance,[4]; microPET 60-75 min,cleared via the hepatobiliary route predominantly
same,uptake in bone,[4]; microPET 60-75 min,no significant uptake
same,K562 tumor uptake in mice,"[4]; mouse, in vivo",significant K562 tumor uptake
same,tumor uptake of tracer,"[1]; H1975 right, H1975-DR left shoulder, before Dasatinib",tumor uptake is evident bilaterally
same,EC50,ABL,0.6 nM
